Broadly, the IC50 is the concentration that inhibits the measured activity by half.

What all share (type): ADME
Data set [1] concerns the target T1, CYP3A4 (Homo sapiens, UniProt P08684). The data set can be described thus: Inhibition of CYP3A4 in human liver microsomes assessed as enzyme-mediated metabolite formation at 3 uM using midazolam as substrate incubated for 5 mins followed by NADPH addition measured after 30 mins by LC-MS/MS analysis relative to control. Also on record: scale not given: the % may be the effect or the level left. Conditions: probe midazolam, read-out: Activity. In general terms: Liver microsomes are a subcellular fraction often used to study metabolism.

For data set [2], the target named is T2, CYP1A2 (Homo sapiens, UniProt P05177).
T2 sequence (P05177 whole entry): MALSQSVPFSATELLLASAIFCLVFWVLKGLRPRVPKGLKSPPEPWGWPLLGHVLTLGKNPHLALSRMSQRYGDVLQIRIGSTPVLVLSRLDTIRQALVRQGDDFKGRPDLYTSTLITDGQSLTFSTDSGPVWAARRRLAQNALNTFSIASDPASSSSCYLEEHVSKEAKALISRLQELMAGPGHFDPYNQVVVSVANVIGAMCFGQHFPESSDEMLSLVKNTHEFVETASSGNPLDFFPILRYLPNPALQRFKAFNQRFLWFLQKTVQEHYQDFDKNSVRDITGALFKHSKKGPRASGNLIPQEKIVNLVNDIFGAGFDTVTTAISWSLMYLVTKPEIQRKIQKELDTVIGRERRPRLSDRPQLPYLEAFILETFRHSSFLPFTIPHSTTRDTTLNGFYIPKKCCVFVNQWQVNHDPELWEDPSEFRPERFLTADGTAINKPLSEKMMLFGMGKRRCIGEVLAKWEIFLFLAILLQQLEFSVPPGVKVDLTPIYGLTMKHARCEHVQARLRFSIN
The data set can be described thus: Inhibition of CYP1A2 in human liver microsomes assessed as enzyme-mediated metabolite formation at 0.1 uM using phenacetin as substrate preincubated for 20 mins followed by substrate addition measured after 30 mins in presence of NADPH by LC-MS/MS analysis relative to control. The settings on record: probe phenacetin, read-out: Activity. Also noted: scale not given: the % may be the effect or the level left.

For data set [3], the target named is T3, CYP2A6 (Homo sapiens, UniProt P11509).
T3 sequence (P11509 whole entry): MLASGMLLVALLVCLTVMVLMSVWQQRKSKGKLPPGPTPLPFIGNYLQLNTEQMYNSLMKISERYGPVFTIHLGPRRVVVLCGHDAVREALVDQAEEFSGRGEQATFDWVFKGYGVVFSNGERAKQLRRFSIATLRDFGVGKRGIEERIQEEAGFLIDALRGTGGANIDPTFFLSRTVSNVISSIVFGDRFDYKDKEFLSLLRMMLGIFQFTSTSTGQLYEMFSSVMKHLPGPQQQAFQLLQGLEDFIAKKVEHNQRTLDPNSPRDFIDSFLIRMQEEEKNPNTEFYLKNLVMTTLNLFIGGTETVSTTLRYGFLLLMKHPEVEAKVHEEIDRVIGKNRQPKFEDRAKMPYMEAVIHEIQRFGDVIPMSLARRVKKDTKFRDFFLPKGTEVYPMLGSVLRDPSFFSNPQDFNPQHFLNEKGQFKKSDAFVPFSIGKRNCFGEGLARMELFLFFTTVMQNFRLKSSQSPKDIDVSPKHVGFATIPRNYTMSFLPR
The data set can be described thus: Inhibition of CYP2A6 in human liver microsomes assessed as enzyme-mediated metabolite formation at 10 uM using coumarin as substrate preincubated for 20 mins followed by substrate addition measured after 30 mins in presence of NADPH by LC-MS/MS analysis relative to control. Also noted: scale not given: the % may be the effect or the level left. The settings on record: probe coumarin, read-out: Activity.

The target of data set [4] is T3, CYP2A6. The data set can be described thus: Inhibition of CYP2A6 in human liver microsomes assessed as enzyme-mediated metabolite formation at 3 uM using coumarin as substrate preincubated for 20 mins followed by substrate addition measured after 30 mins in presence of NADPH by LC-MS/MS analysis relative to control. Also noted: scale not given: the % may be the effect or the level left. The settings on record: probe coumarin, read-out: Activity.

Data set [5] addresses T4, Cytochrome P450 3A4 (Homo sapiens, UniProt P08684). In words: Inhibition of CYP3A4 in human liver microsomes assessed as enzyme-mediated metabolite formation using midazolam as substrate incubated for 5 mins followed by NADPH addition measured after 30 mins by LC-MS/MS analysis.
Data set [6] addresses T5, CYP2C8 (Homo sapiens, UniProt P10632).
T5 sequence (P10632 whole entry): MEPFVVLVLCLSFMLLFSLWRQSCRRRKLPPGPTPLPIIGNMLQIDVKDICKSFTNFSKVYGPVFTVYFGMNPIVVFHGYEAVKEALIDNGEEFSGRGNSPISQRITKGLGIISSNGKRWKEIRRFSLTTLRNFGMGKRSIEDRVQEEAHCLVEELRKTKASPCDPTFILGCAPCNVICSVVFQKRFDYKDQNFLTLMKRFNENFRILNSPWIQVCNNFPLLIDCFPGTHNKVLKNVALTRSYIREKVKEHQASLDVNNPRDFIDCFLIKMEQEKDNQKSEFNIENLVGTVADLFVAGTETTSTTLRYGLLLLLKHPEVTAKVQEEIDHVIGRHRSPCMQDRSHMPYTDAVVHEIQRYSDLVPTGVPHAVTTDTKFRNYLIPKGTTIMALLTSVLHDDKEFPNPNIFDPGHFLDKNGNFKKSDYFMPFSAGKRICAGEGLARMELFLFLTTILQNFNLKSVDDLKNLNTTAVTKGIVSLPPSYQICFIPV
The data set can be described thus: Inhibition of CYP2C8 in human liver microsomes assessed as enzyme-mediated metabolite formation at 0.3 uM using paclitaxel as substrate incubated for 5 mins followed by NADPH addition measured after 30 mins by LC-MS/MS analysis relative to control. Also noted: scale not given: the % may be the effect or the level left. The settings on record: probe paclitaxel, read-out: Activity.

Data set [7] has as its target T2, CYP1A2. In words: Inhibition of CYP1A2 in human liver microsomes assessed as enzyme-mediated metabolite formation at 30 uM using phenacetin as substrate preincubated for 20 mins followed by substrate addition measured after 30 mins in presence of NADPH by LC-MS/MS analysis relative to control. The settings on record: probe phenacetin, read-out: Activity. Also noted: scale not given: the % may be the effect or the level left.

In data set [8] the target is T1, CYP3A4. The data set can be described thus: Inhibition of CYP3A4 in human liver microsomes assessed as enzyme-mediated metabolite formation at 0.1 uM using midazolam as substrate incubated for 5 mins followed by NADPH addition measured after 30 mins by LC-MS/MS analysis relative to control. Conditions: probe midazolam, read-out: Activity. Also noted: scale not given: the % may be the effect or the level left.

In data set [9] the target is T1, CYP3A4. In words: Inhibition of CYP3A4 in human liver microsomes assessed as enzyme-mediated metabolite formation at 0.3 uM using testosterone as substrate incubated for 5 mins followed by NADPH addition measured after 30 mins by LC-MS/MS analysis relative to control. Also noted: scale not given: the % may be the effect or the level left. The settings on record: probe testosterone, read-out: Activity.

Data set [10] concerns the target T4, Cytochrome P450 3A4. The data set can be described thus: Inhibition of CYP3A4 in human liver microsomes using midazolam as substrate preincubated for 20 mins followed by substrate addition measured after 30 mins in presence of NADPH by LC-MS/MS analysis.
Data set [11] concerns the target T2, CYP1A2. The data set can be described thus: Inhibition of CYP1A2 in human liver microsomes assessed as enzyme-mediated metabolite formation at 1 uM using phenacetin as substrate preincubated for 20 mins followed by substrate addition measured after 30 mins in presence of NADPH by LC-MS/MS analysis relative to control. Conditions: probe phenacetin, read-out: Activity. Also noted: scale not given: the % may be the effect or the level left.

The target of data set [12] is T2, CYP1A2. In words: Inhibition of CYP1A2 in human liver microsomes assessed as enzyme-mediated metabolite formation at 0.1 uM using phenacetin as substrate incubated for 5 mins followed by NADPH addition measured after 30 mins by LC-MS/MS analysis relative to control. Also noted: scale not given: the % may be the effect or the level left. Conditions: probe phenacetin, read-out: Activity.

Data set [13] addresses T5, CYP2C8. The data set can be described thus: Inhibition of CYP2C8 in human liver microsomes assessed as enzyme-mediated metabolite formation at 1 uM using paclitaxel as substrate incubated for 5 mins followed by NADPH addition measured after 30 mins by LC-MS/MS analysis relative to control. Also on record: scale not given: the % may be the effect or the level left. Conditions: probe paclitaxel, read-out: Activity.

Bounds are passed on as bounds.

T1 sequence (P08684 whole entry): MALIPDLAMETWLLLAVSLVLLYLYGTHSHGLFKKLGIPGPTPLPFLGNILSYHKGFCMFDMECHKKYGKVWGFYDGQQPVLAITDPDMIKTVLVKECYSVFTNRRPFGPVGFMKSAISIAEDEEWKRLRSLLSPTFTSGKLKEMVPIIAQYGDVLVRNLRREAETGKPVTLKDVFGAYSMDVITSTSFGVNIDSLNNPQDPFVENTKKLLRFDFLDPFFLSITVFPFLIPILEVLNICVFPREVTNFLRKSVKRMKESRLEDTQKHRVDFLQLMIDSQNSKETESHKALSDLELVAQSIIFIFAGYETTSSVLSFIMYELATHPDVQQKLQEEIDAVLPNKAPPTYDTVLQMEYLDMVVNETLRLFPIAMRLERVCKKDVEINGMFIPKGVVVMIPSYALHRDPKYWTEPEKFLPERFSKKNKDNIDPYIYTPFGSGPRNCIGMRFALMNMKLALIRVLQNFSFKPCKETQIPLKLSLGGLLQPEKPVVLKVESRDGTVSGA
T4 sequence (P08684 whole entry): as above

As for `CCCCCCCC(=O)CCc1ccc(O)c(OC)c1`, the activity at 0.5 h, 3 µM on CYP3A4 [1] was determined as 77.4%; at CYP2A6 [4], 104%. Further, the values for the activity at 0.5 h, 0.1 µM on CYP1A2 [2], at CYP3A4 [8] and on CYP1A2 [12] were 97.2%, 109% and 100%, respectively. Moreover, on CYP2A6 [3], the activity at 0.5 h, 10 µM amounted to 96.1%. Also, the IC50 at Cytochrome P450 3A4 [5] and on Cytochrome P450 3A4 [10] was greater than 30 µM throughout. The activity at 0.5 h, 0.3 µM at CYP2C8 [6] is 82%; on CYP3A4 [9] it was 75.2%. Also, the activity at 0.5 h, 30 µM at CYP1A2 [7] came to 42.8%. The activity at 0.5 h, 1 µM came out at 82.1% on CYP1A2 [11] and 68.7% at CYP2C8 [13].
